PubChem BioAssay AID1259407 (Chemical Carcinogenesis Research Information System (CCRIS), 2018)
Calls of active or inactive are those of the source. No rule for the calls is given here.

System: CCRIS mutagenicity, Ames/micronucleus/aberration tests
Assay: CCRIS mutagenicity studies
[1] = Test System: AMES SALMONELLA TYPHIMURIUM, Strain/Indicator: TA98, Metabolic Activation: NONE, Method: STANDARD PLATE
[2] = Test System: AMES SALMONELLA TYPHIMURIUM, Strain/Indicator: TA100, Metabolic Activation: NONE, Method: STANDARD PLATE

## O=C1C=CC(=O)C=C1
Test System: AMES SALMONELLA TYPHIMURIUM, Strain/Indicator: TA97, Metabolic Activation: NONE, Method: STANDARD PLATE
  mutagenic call: inactive; negative
Test System: AMES SALMONELLA TYPHIMURIUM, Strain/Indicator: TA97, Metabolic Activation: RAT, LIVER, S-9, AROCLOR 1254, Method: PREINCUBATION
  mutagenic call: inactive; negative
Test System: AMES SALMONELLA TYPHIMURIUM, Strain/Indicator: TA97, Metabolic Activation: RAT, LIVER, S-9, PCB, Method: STANDARD PLATE
  mutagenic call: inactive; negative
Test System: AMES SALMONELLA TYPHIMURIUM, Strain/Indicator: TA97, Metabolic Activation: RAT, LIVER, S-9, PHENOBARBITAL, Method: PREINCUBATION
  mutagenic call: inactive; negative
[1]
  mutagenic call: inactive; negative
Test System: AMES SALMONELLA TYPHIMURIUM, Strain/Indicator: TA98, Metabolic Activation: RAT, LIVER, S-9, AROCLOR 1254, Method: PREINCUBATION
  mutagenic call: inactive; negative
Test System: AMES SALMONELLA TYPHIMURIUM, Strain/Indicator: TA98, Metabolic Activation: RAT, LIVER, S-9, PCB, Method: STANDARD PLATE
  mutagenic call: inactive; negative
Test System: AMES SALMONELLA TYPHIMURIUM, Strain/Indicator: TA98, Metabolic Activation: RAT, LIVER, S-9, PHENOBARBITAL AND 5,6-BENZOFLAVONE, Method: PREINCUBATION
  mutagenic call: inactive; negative
Test System: AMES SALMONELLA TYPHIMURIUM, Strain/Indicator: TA98, Metabolic Activation: RAT, LIVER, S-9, PHENOBARBITAL, Method: PREINCUBATION
  mutagenic call: active; positive
Test System: AMES SALMONELLA TYPHIMURIUM, Strain/Indicator: TA100, Metabolic Activation: NONE, Method: FLUCTUATION TEST
  mutagenic call: inactive; negative
Test System: AMES SALMONELLA TYPHIMURIUM, Strain/Indicator: TA100, Metabolic Activation: NONE, Method: PREINCUBATION
  mutagenic call: inactive; negative
[2]
  mutagenic call: inactive; negative
Test System: AMES SALMONELLA TYPHIMURIUM, Strain/Indicator: TA100, Metabolic Activation: RAT, LIVER, S-9, AROCLOR 1254, Method: PREINCUBATION
  mutagenic call: inactive; negative
Test System: AMES SALMONELLA TYPHIMURIUM, Strain/Indicator: TA100, Metabolic Activation: RAT, LIVER, S-9, PCB, Method: FLUCTUATION TEST
  mutagenic call: active; positive
Test System: AMES SALMONELLA TYPHIMURIUM, Strain/Indicator: TA100, Metabolic Activation: RAT, LIVER, S-9, PCB, Method: STANDARD PLATE
  mutagenic call: inactive; negative
Test System: AMES SALMONELLA TYPHIMURIUM, Strain/Indicator: TA100, Metabolic Activation: RAT, LIVER, S-9, PHENOBARBITAL, Method: PREINCUBATION
  mutagenic call: active; positive
Test System: AMES SALMONELLA TYPHIMURIUM, Strain/Indicator: TA102, Metabolic Activation: NONE, Method: PREINCUBATION
  mutagenic call: inactive; negative
Test System: AMES SALMONELLA TYPHIMURIUM, Strain/Indicator: TA102, Metabolic Activation: RAT, LIVER, S-9, AROCLOR 1254, Method: PREINCUBATION
  mutagenic call: inactive; negative
Test System: AMES SALMONELLA TYPHIMURIUM, Strain/Indicator: TA102, Metabolic Activation: RAT, LIVER, S-9, PHENOBARBITAL AND 5,6-BENZOFLAVONE, Method: PREINCUBATION
  mutagenic call: inactive; negative
Test System: AMES SALMONELLA TYPHIMURIUM, Strain/Indicator: TA104, Metabolic Activation: RAT, LIVER, S-9, AROCLOR 1254, Method: PREINCUBATION
  mutagenic call: inactive; negative
Test System: AMES SALMONELLA TYPHIMURIUM, Strain/Indicator: TA104, Metabolic Activation: RAT, LIVER, S-9, PHENOBARBITAL AND 5,6-BENZOFLAVONE, Method: PREINCUBATION
  mutagenic call: inactive; negative
Test System: AMES SALMONELLA TYPHIMURIUM, Strain/Indicator: TA1535, Metabolic Activation: NONE, Method: PREINCUBATION
  mutagenic call: inactive; negative
Test System: AMES SALMONELLA TYPHIMURIUM, Strain/Indicator: TA1535, Metabolic Activation: RAT, LIVER, S-9, AROCLOR 1254, Method: PREINCUBATION
  mutagenic call: inactive; negative
Test System: AMES SALMONELLA TYPHIMURIUM, Strain/Indicator: TA2637, Metabolic Activation: NONE, Method: PREINCUBATION
  mutagenic call: inactive; negative
Test System: AMES SALMONELLA TYPHIMURIUM, Strain/Indicator: TA2637, Metabolic Activation: RAT, LIVER, S-9, PHENOBARBITAL AND 5,6-BENZOFLAVONE, Method: PREINCUBATION
  mutagenic call: inactive; negative
Test System: CHINESE HAMSTER V-79, Strain/Indicator: V-79/6-THIOGUANINE, Metabolic Activation: NONE
  mutagenic call: active; positive
Test System: MOUSE LYMPHOMA, Strain/Indicator: L5178Y (TK+/TK-), Metabolic Activation: NONE, Method: SUSPENSION/PLATE
  mutagenic call: active; positive

## ClC(Cl)=C(Cl)c1ccc(Cl)c(Cl)c1Cl
[1]
  mutagenic call: inactive; negative
Test System: AMES SALMONELLA TYPHIMURIUM, Strain/Indicator: TA98, Metabolic Activation: RAT, LIVER, S-9, AROCLOR 1254, Method: STANDARD PLATE
  mutagenic call: inactive; negative
[2]
  mutagenic call: inactive; negative
Test System: AMES SALMONELLA TYPHIMURIUM, Strain/Indicator: TA100, Metabolic Activation: RAT, LIVER, S-9, AROCLOR 1254, Method: STANDARD PLATE
  mutagenic call: inactive; negative

## CC(/C=C(/C#N)c1ccc(Br)cc1)C(c1ccccc1)C(C#N)c1ccc(Br)cc1 (configuration not stated)
Test System: AMES SALMONELLA TYPHIMURIUM, Strain/Indicator: TA97A, Metabolic Activation: NONE, Method: STANDARD PLATE
  mutagenic call: inactive; negative
